Source: PMC10051454, “Synthesis of Schiff Bases Containing Phenol Rings and Investigation of Their Antioxidant Capacity, Anticholinesterase, Butyrylcholinesterase, and Carbonic Anhydrase Inhibition Properties” (Pharmaceutics, 2023)
Several values for one entry are separate records, joined by “and”; a condition that tells them apart may be missing. Equal entries are not always repeated. Where two headings read alike, the source gives them in different places.

Experiments:
[1] = ABTS radical cation scavenging
Method: The ABTS radical cation scavenging assay was used as a way to calculate antioxidant capacity based on this radical scavenging ability. Firstly, an aqueous solution of ABTS (7.0 mM) was oxidized by oxidants such as K2S2O8 (2.5 mM) for the production of its radical cation (ABTS^•+). […] Then, 1 mL of ABTS^•+ solution was added to 3 mL Schiff base (10–15) and hydrazineylidene derivative (16 and 17) solutions at different concentrations (10–30 μg/mL).

[2] = Fe3+ reducing ability (ferricyanide method, absorbance 700 nm); details: 30 µg/mL; absorbance at 700 nm
Method: The Fe^3+ reducing ability of Schiff bases (10–15) and hydrazineylidene derivatives (16 and 17) were tested according to our prior studies. For this purpose, various concentrations of compounds (10–17) were transferred into test tubes, and 2.5 mL of phosphate buffer (0.2 M, pH 6.6) and 2.5 mL (1%) of potassium ferricyanide [K3Fe(CN)6] solutions were added. Then, the mixture was vortexed and incubated at 50 °C for 20 min. A portion of trichloroacetic acid (2.5 mL, 10%) was added. Then, 2.5 mL of upper layers of the solutions were mixed with 2.5 mL distilled water and 0.5 mL FeCl3 (0.1%). The absorbance values of the reducing effects of compounds (10–17) and standards were spectrophotometrically recorded at 700 nm.

[3] = DPPH radical scavenging (Blois method); details: half maximal scavenging concentration
Method: DPPH· and ABTS^•+ scavenging methods are the most widely used spectrophotometric methods to determine the antioxidant capacity of newly synthesized compounds. The DPPH‧ scavenging effect of Schiff bases (10–15) and hydrazineylidene derivatives (16 and 17) was realized according to the Blois method. Briefly, 1 mL of DPPH^• solution (0.1 mM), which was prepared in ethanol and was a violet/purple color […], was added to the Schiff base (10–15) and hydrazineylidene derivative (16 and 17) samples at different concentrations (10–30 μg/mL). Then, they were incubated at room temperature for 30 min and their absorbance values were recorded at 517 nm.

[4] = Cu2+ reducing ability (neocuproine method, absorbance 450 nm); details: 30 µg/mL; absorbance at 450 nm
Method: The Cu^2+ reducing ability of Schiff bases (10–15) and hydrazineylidene derivatives (16 and 17) were detected according to a prior study. For this purpose, 0.25 mL of CuCl2 solution (10 mM), 0.25 mL of ethanolic neocuproine solution (7.5 × 10^−3 M), and 250 μL of NH4Ac buffer solution (1.0 M) in different concentrations (10–30 μg/mL) were transferred to test tubes containing Schiff base (10–15) and hydrazineylidene derivative (16 and 17) samples. The total volume was made up to 2 mL with distilled water, and their absorbance values were recorded at 450 nm after 30 min of incubation.

[5] = Fe3+-TPTZ complex reducing ability (absorbance 593 nm); details: 30 µg/mL; absorbance at 593 nm
Method: The Fe^3+-TPTZ complex reducing ability of Schiff bases (10–15) and hydrazineylidene derivatives (16 and 17) was realized according to a previous study. For this, 2.25 mL of TPTZ solution (10 mM in 40 mM HCl) was freshly prepared, then added to 2.5 mL of acetate buffer (0.3 M, pH 3.6) and 2.25 mL of FeCl3 solution (20 mM). Then, different concentrations of Schiff bases (10–15) and hydrazineylidene derivatives (16 and 17) were transferred and incubated at 37 °C for 30 min. Finally, the absorbance values of the reducing power of Schiff bases (10–15) and hydrazineylidene derivatives (16 and 17) and standards were spectrophotometrically measured at 593 nm.

AChE = AChE (Homo sapiens, UniProt P22303); test: biochemical
Method: (§1) Acetylthiocholine iodide/butyrylthiocholine iodide (AChI)/BChI) and 5,5′-dithiobis(2-nitro-benzoic acid) (DTNB) were used as the substrate pattern for both cholinergic reactions. […] Then, the samples were incubated at 25 °C for 15 min, and 50 μL of DTNB solution (0.5 mM,) was transferred.

BChE = BChE (Homo sapiens, UniProt P06276); test: biochemical
Method: as §1

hCA I [6] = biological target: T1, hCA I (Homo sapiens, UniProt P00915); test: biochemical
Description: (§2) Both isoforms’ activity was spectrophotometrically determined according to the Verpoorte assay [47]. […] All experiments of the CA inhibition assay were repeated three times and the results are given as the arithmetic mean of these repetitions.

hCA II = hCA II (Homo sapiens, UniProt P00918); test: hCA II inhibition, esterase assay (Verpoorte); type: biochemical
Description: as §2

hCA I [7] = biological target: T1, hCA I
Description: as §2

BChE, sequence (P06276 29-602): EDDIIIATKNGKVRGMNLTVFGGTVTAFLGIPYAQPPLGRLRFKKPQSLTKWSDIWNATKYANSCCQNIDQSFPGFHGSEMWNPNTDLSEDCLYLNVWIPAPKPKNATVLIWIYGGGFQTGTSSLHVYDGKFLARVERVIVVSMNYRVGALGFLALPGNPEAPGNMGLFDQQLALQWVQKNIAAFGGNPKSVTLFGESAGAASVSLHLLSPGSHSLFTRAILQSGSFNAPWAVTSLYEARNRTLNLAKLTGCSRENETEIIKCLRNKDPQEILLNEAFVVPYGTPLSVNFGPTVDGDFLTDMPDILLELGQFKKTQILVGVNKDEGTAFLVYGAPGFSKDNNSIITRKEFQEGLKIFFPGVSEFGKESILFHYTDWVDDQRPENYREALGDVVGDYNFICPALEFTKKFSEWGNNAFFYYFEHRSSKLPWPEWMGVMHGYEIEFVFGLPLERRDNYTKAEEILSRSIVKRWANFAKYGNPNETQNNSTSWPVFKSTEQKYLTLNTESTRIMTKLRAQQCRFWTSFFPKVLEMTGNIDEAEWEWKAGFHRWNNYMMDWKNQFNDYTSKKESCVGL
T1 sequence (P00915 whole entry): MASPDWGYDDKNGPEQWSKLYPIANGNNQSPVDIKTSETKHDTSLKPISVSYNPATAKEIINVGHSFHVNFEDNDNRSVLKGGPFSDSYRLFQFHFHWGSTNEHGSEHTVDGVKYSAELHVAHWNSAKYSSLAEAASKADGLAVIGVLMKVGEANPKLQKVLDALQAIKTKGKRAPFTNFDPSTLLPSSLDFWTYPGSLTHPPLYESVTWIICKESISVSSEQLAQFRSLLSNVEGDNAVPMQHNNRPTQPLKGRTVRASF
AChE, sequence (P22303 32-614): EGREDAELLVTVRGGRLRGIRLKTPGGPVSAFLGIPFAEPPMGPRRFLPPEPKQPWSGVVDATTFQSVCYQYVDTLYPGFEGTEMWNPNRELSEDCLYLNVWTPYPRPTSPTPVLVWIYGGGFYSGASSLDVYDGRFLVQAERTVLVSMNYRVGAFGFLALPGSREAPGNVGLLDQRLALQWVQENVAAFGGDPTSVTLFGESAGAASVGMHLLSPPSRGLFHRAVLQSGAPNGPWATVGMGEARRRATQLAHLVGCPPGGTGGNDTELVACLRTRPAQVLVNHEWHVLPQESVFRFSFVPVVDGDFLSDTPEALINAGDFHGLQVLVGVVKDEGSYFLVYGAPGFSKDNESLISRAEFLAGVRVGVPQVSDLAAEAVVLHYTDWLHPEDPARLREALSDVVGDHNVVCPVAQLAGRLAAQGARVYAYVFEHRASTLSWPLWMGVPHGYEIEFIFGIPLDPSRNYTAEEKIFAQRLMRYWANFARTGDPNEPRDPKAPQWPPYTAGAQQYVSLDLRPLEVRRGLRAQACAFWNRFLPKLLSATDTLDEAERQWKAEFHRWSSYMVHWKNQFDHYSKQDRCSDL

Row | Structure (SMILES) | ABTS^•+ Scavenging IC50 [1] | Fe^3+ Reducing λ700 [2] [absorbance] | DPPH^• Scavenging IC50 [3] | Cu^2+ Reducing λ450 [4] [absorbance] | Fe^3+-TPTZ Reducing λ593 [5] [absorbance] | Selectivity Index (AChE/BChE) (AChE) | IC50 (AChE; read-out: IC50 AChE) [µM] | IC50 (BChE; read-out: IC50 BChE) [µM] | IC50 (hCA I [6]) [µM] | IC50 (hCA II; read-out: IC50 hCA II) [µM] | Selectivity Index (hCA I/hCA II) (hCA I [7]) | Ki (hCA II) [µM] | Ki (hCA I [6]) [µM] | IC50 (AChE) [µM] | IC50 (BChE) [µM] | IC50 (hCA II) [µM]
1 | Cc1c(C)c2c(c(C)c1O)CC[C@@](C)(CCC[C@H](C)CCC[C@H](C)CCCC(C)C)O2 [α-Tocopherol, α-tocopherol, reference compound] | 9.493 mg/L and 9.49 mg/L | 1.446 ± 0.009 | 10.043 mg/L and 10.04 mg/L | 1.923 ± 0.032 | 1.763 ± 0.026 | – | – | – | – | – | – | – | – | – | – | –
2 | COc1ccc(/C=N/Cc2ccccc2)cc1O [Compound 15, (E)-5-((Benzylimino)methyl)-2-methoxyphenol] | 23.896 mg/L and 23.89 mg/L | 0.363 ± 0.021 | 99.01 mg/L | 0.803 ± 0.013 | 0.646 ± 0.034 | 0.704 | 0.0257 | 0.0365 | 0.099 | 0.139 | 0.521 | – | – | – | – | –
3 | NN=C(c1ccccc1)c1ccccc1 [Compound 8, benzophenone hydrazone] | – | – | – | 1.005 ± 0.009 | – | – | – | – | – | – | – | – | – | – | – | –
4 | COc1ccc(/C=N/c2ccc(N(C)C)cc2)cc1O [Compound 10, (E)-5-(((4-(Dimethylamino)phenyl)imino)methyl)-2-methoxyphenol] | 14.437 mg/L and 14.43 mg/L | 2.827 ± 0.016 | 16.902 mg/L and 16.90 mg/L | 2.176 ± 0.044 | 2.076 ± 0.004 | 1.115 | 0.0267 | 0.0239 | 0.066 | 0.131 | 0.372 | – | – | – | – | –
5 | COc1ccc(/C=N/Nc2ccccc2)cc1O [Compound 17, (E)-2-Methoxy-5-((2-phenylhydrazineylidene)methyl)phenol] | 4.304 mg/L and 4.30 mg/L | 2.391 ± 0.037 | 14.744 mg/L and 14.74 mg/L | 2.026 ± 0.016 | 2.121 ± 0.014 | 1.206 | 0.0239 | 0.0198 | 0.0963 | 0.116 | 0.247 | – | – | – | – | –
6 | COc1ccc(/C=N/c2ccc(F)cc2)cc1O [Compound 12, (E)-5-(((4-Fluorophenyl)imino)methyl)-2-methoxyphenol] | 27.72 mg/L | 0.294 ± 0.008 | 57.75 mg/L | 0.951 ± 0.010 | 0.806 ± 0.003 | 0.700 | 0.0231 | 0.033 | 0.0619 | 0.099 | 0.424 | – | – | – | – | –
7 | Cc1cc(C(C)(C)C)c(O)c(C(C)(C)C)c1 [BHT, butylated hydroxytoluene, reference compound] | 4.95 mg/L | 1.994 ± 0.033 | 13.326 mg/L and 13.32 mg/L | 2.149 ± 0.019 | 2.037 ± 0.027 | – | – | – | – | – | – | – | – | – | – | –
8 | COc1ccc(/C=N/c2ccccc2O)cc1O [Compound 11, (E)-5-(((2-Hydroxyphenyl)imino)methyl)-2-methoxyphenol] | 4.386 mg/L and 4.38 mg/L | 2.591 ± 0.010 | 12.157 mg/L and 12.15 mg/L | 2.332 ± 0.018 | 2.183 ± 0.016 | 0.645 | 0.0224 | 0.0347 | 0.0866 | 0.0882 | 0.730 | – | – | – | – | –
9 | Cc1c(C)c2c(c(C)c1O)CCC(C)(C(=O)O)O2 (centres unmarked) [Trolox, trolox, reference compound] | 4.846 mg/L and 4.84 mg/L | 1.570 ± 0.016 | 12.157 mg/L and 12.15 mg/L | 1.174 ± 0.027 | 2.051 ± 0.028 | – | – | – | – | – | – | – | – | – | – | –
10 | COc1ccc(/C=N/c2ccc(Br)cc2)cc1O [Compound 13, (E)-5-(((4-Bromophenyl)imino)methyl)-2-methoxyphenol] | 34.65 mg/L | 0.198 ± 0.004 | 87.721 mg/L and 87.72 mg/L | 0.875 ± 0.020 | 0.701 ± 0.003 | 0.615 | 0.0178 | 0.0289 | 0.063 | 0.077 | 0.483 | 0.0676 ± 0.0157 | – | – | – | –
11 | COc1ccc(O)c(C(C)(C)C)c1 [BHA, butylated hydroxyanisole, reference compound] | 4.47 mg/L | 2.448 ± 0.021 | 11.55 mg/L | 2.268 ± 0.011 | 2.156 ± 0.005 | – | – | – | – | – | – | – | – | – | – | –
12 | COc1ccc(/C=N/N=C(c2ccccc2)c2ccccc2)cc1O [Compound 16, (E)-5-(((Diphenylmethylene)hydrazineylidene)methyl)-2-methoxyphenol] | 11.745 mg/L and 11.74 mg/L | 0.311 ± 0.018 | 30.13 mg/L | 1.266 ± 0.029 | 1.069 ± 0.057 | 0.627 | 0.0161 | 0.0257 | 0.0693 | 0.112 | 0.326 | – | – | – | – | –
13 | COc1ccc(/C=N/c2ccc(N)cc2)cc1O [Compound 14, (E/Z)-5-(((4-Aminophenyl)imino)methyl)-2-methoxyphenol] | 5.33 mg/L | 2.741 ± 0.026 | 13.86 mg/L | 1.970 ± 0.018 | 2.074 ± 0.017 | 0.900 | 0.0347 | 0.0385 | 0.0533 | 0.0693 | 0.306 | – | 0.0261 ± 0.00853 | – | – | –
14 | COc1ccc(C=O)cc1O [Compound 1, Isovanillin] | 12.15 mg/L | 0.244 ± 0.005 | 86.62 mg/L | 1.005 ± 0.009 | 0.728 ± 0.020 | 1.083 | – | – | 0.139 | – | – | – | 0.112 ± 0.0258 | 0.0578 | 0.0533 | 0.173
